From PMC11012721 (International Journal of Molecular Sciences, 2024)

Columns and labels:
mice [1] = assay: passive avoidance test, LPS-induced long-term memory impairment; type: in vivo; details: LPS 2.5 mg/kg ip
Method: (§1) The passive avoidance test in mice is used to assess fear-related learning and memory. The apparatus consists of an acrylic box with two chambers: white (10 × 13 × 15 cm) and black (25 × 20 × 15 cm). During the experiment, the white chamber is illuminated with a bright light (8 W). The black chamber, which is equipped with an electric grid base, is connected to the illuminated chamber.
(§2) A pre-test (training) was carried out before the experiments. Each mouse was placed individually in the illuminated chamber of the device and allowed to explore it within 30 s. The guillotine door separating the two chambers was then opened. The mouse was then allowed to enter the black chamber, where it was immediately treated with an electric shock (0.2 mA) for 2 s. The latency to enter the black chamber was recorded (TL1). During the retention trial, which was performed 24 h after the pre-test, the same mouse was again placed in the lighted chamber of the device. The time required to enter the black chamber was recorded (TL2). In contrast to the pre-test, no foot shock was administered this time. […] The index of latency (IL) was calculated as follows:IL = (TL2 − TL1)/TL1(1)
(§3) After the 30 min delay, the pre-test was performed.

[2] = tested on: phosphatidylcholine PC(22:4(7Z, 10Z, 13Z, 16Z)/16:0) level; assay: phosphatidylcholine level in brain samples, pathway analysis (Mass Profiler Professional, KEGG); type: in vivo, mice; details: for effect on phosphatidylcholine level in brains: LPS model
Method: (§4) The liquid chromatograph consisted of a degasser, a binary pump, a column oven, an autosampler and the high-resolution mass detector QTOF-MS/MS with an electrospray ionization source. The chromatographic column Zorbax Eclipse Plus (Agilent Technologies, CA, USA) (150 mm × 2.1 mm, 3.2 um, RP-18) was used to separate the metabolites of the injected matrix in the following gradient of acetonitrile with 0.1% formic acid (solvent B) in the 0.1% aqueous solution of formic acid (solvent A): 0 min—2% B, 2 min—10% B, 6 min—40% B, 35–37 min—95% B and 37.5 min—2% B. The analysis time was set to 43 min, the follow-up time to 5 min, the flow rate to 0.2 mL/min and the injection volume to 10 μL. The detailed settings of the mass spectrometer were as follows: a capillary voltage of 3000 V, a skimmer voltage of 65 V, a mass range of 100–1200 m/z, a collision energy of 10 and 20 V, a nebulizer pressure of 30 psig, a gas flow rate of 12 L/min and gas and sheath gas temperatures of 250 and 325 °C. The Mass Hunter Workstation (version B.10.00) from Agilent Technologies was used to record and process the data obtained. […] For each of the concentrations, the average values of the content of the tested substance in the respective organ were calculated. The standard deviation (SD) values were calculated in each case. The recorded mass chromatograms for the brain samples (injection with saline: n = 2, injection with LPS: n = 3 and 25 mg/kg b.w. with LPS injection: n = 3) were analyzed with the Mass Profiler Professional Program 15.1 from Agilent Technologies (Santa Clara, CA, USA) with a built-in pathways analysis module that uses the Kyoto Encyclopedia of Genes and Genomes (KEGG) database to detect the effects of the injected substance on molecular mechanisms. First, the raw data from the recorded chromatograms were exported in csv format and analyzed in the program. […] Of the 517 entities analyzed, eleven differentiating m/z signals were detected in the samples, with p < 0.05 and a fold change of 2 settings. One of the differentiating signals was phosphatydylcholine, whose behavior in the tested samples was analyzed with the pathways module.

mice [3] = assay: passive avoidance test, SCOP-induced long-term memory impairment; type: in vivo
Method: as §1, §2, §3

[4] = HPLC-ESI-QTOF-MS/MS determination of astragaloside IV in organs post mortem; type: in vivo, mice; details: for content in kidney (Av) / content in liver (Av) / content in spleen (Av) / content in brain (Av): 1 h after injection, n = 3
Method: They were then homogenized in an Eppendorff plastic vial kept in ice. The homogenates of the organs were vortexed with 200 µL of 50% ethanol for 10 min. The Eppendorff vials were centrifuged at 3500 rpm for 5 min and the supernatant was filtered through a nylon syringe filter with a diameter of 0.22 µm into the autosampler vials with the glass inserts. […] Due to the small size and mass of brains, AIV was quantified in these organs after addition of the reference compound (Sigma Aldrich, St. Louis, MO, USA) to the samples. […] The peak areas of astragaloside IV in the brains were compared with the blank solution of the standard compound. The levels of astragaloside IV in the other organs were measured without the presence of the reference compound.
as §4

AChE = details: previous studies; cited from earlier work
[5] = set-up: method as in Zhang et al. [60]; details: ref Zhang et al. [60]; cited from earlier work
mice [6] = assay: locomotor activity test (photoresistance actimeters); details: 6, 12.5 or 25 mg/kg ip; 30 min measurement; p > 0.05
[7] = AIV smaller doses (6, 12.5 mg/kg ip), p > 0.05
[8] = AIV 6, 12.5 or 25 mg/kg ip, p > 0.05 vs LPS

Molecule: lipopolysaccharide [LPS]
- effect on memory acquisition and consolidation vs control mice (mice [1]; p < 0.001): impaired both memory acquisition and consolidation
- effect on phosphatidylcholine level in brains [2]: decrease the level of phosphatidylcholines
- Kennedy Pathway log2 (phosphatidylcholine level) ([2]; brain samples, LPS group): 0
- One-Carbon Metabolism log2 (phosphatidylcholine level) ([2]; brain samples, LPS group): 0

Molecule: CC(C)(O)[C@@H]1CC[C@](C)([C@H]2[C@@H](O)C[C@@]3(C)[C@@H]4C[C@H](O[C@@H]5O[C@H](CO)[C@@H](O)[C@H](O)[C@H]5O)[C@H]5C(C)(C)[C@@H](O[C@@H]6OC[C@@H](O)[C@H](O)[C@H]6O)CC[C@@]56C[C@@]46CC[C@]23C)O1 [AIV, astragaloside IV]
- attenuation of SCOP-impaired acquisition of long-term memory (mice [3]; AIV 25 mg/kg ip before SCOP 1 mg/kg ip, p < 0.001 vs SCOP): attenuated
- attenuation of SCOP-impaired consolidation of long-term memory (mice [3]; AIV 25 mg/kg ip, SCOP 1 mg/kg ip, p < 0.01 vs SCOP): attenuated
- attenuation of SCOP-impaired acquisition of long-term memory (mice [3]; [7]): ineffective
- attenuation of SCOP-impaired consolidation of long-term memory (mice [3]; [7]): ineffective
- effect of AIV itself on acquisition of long-term memory (mice [3]; all doses tested (6, 12.5, 25 mg/kg ip), no SCOP, p < 0.001 vs control): improved acquisition
- attenuation of LPS-impaired acquisition of long-term memory (mice [1]; [8]): did not attenuate
- attenuation of LPS-impaired consolidation of long-term memory (mice [1]; [8]): did not attenuate
- content in kidney (Av) ([4]; 6 mg/kg ip): 0.0174 mg/Organ
- content in liver (Av) ([4]; 6 mg/kg ip): 0.00411 mg/Organ
- content in spleen (Av) ([4]; 6 mg/kg ip): 0.03766 mg/Organ
- content in brain (Av) ([4]; 12.5 mg/kg ip): 0.00012 mg/Organ
- content in kidney (Av) ([4]; 12.5 mg/kg ip): 0.03882 mg/Organ
- content in liver (Av) ([4]; 12.5 mg/kg ip): 0.01084 mg/Organ
- content in spleen (Av) ([4]; 12.5 mg/kg ip): 0.04919 mg/Organ
- content in brain (Av) ([4]; 25 mg/kg ip): 0.00023 mg/Organ
- content in kidney (Av) ([4]; 25 mg/kg ip): 0.08892 mg/Organ
- content in liver (Av) ([4]; 25 mg/kg ip): 0.02316 mg/Organ
- content in spleen (Av) ([4]; 25 mg/kg ip): 0.06844 mg/Organ
- dose dependence of concentration in soft organ tissues ([4]; 6, 12.5, 25 mg/kg ip): dose-dependent
- rank order of content in soft organs ([4]; ip, mice, post mortem): highest content of the saponin was found in the kidneys, then in the spleen, liver and brain
- effect on phosphatidylcholine level in brains ([2]; astragaloside IV 25 mg/kg b.w. ip): restored the level of the compound to that of saline administration
- AChE inhibition (AChE): inhibitor of AChE
- route of excretion [5]: excreted slowly via hepatic clearance
- effect on locomotor activity (mice [6]): no effect

Molecule: CN1[C@@H]2C[C@@H](OC(=O)[C@H](CO)c3ccccc3)C[C@H]1[C@@H]1O[C@@H]12 [SCOP, Scopolamine, reference compound]
- effect on memory acquisition and consolidation vs control mice (mice [3]; SCOP 1 mg/kg ip, p < 0.001): impaired both memory acquisition and consolidation
